Data on four compounds can be found in ChEMBL document CHEMBL1158921, “Antitumor agents, 116. Cytotoxic triterpenes from Maytenus diversifolia” (1990).

≈ marks a conversion by molar mass, not a printed value. Calls of active or inactive are those of the source. No cut-off for these calls is given here.

Holding throughout (assay type): functional
One experiment has as its system A549. Kind of experiment: Cytotoxicity against human A549 cells. Particulars: for EC50: read-out: ED50 (the source's name).
Another experiment relates to KB. The experiment in a line: Cytotoxicity against human KB cells.
For the next experiment, the system named is L1210. The experiment in a line: Cytotoxicity against mouse L1210 cells.
The mark [1] stands for this setting: read-out: ED50 (the source's name).

On to `C[C@H]1C(=O)CC[C@@H]2[C@]1(C)CC[C@H]1[C@@]2(C)CC[C@@]2(C)[C@@H]3C[C@](C)(C(=O)O)CC[C@]3(C)CC[C@]12C` [MAYTENOIC ACID], for which, in the experiment on A549, the EC50 turned out to be 0.21 µg/mL (≈ 0.46 µM).

As to `C[C@H]1C(=O)CC[C@@H]2[C@]1(C)CC[C@H]1[C@@]2(C)CC[C@@]2(C)[C@@H]3CC(C)(C)CC[C@]3(C(=O)O)CC[C@]12C`, the EC50 in the experiment on A549 was determined as 1.18 µg/mL (≈ 2.58 µM); in the experiment on KB (setting [1]), 3.7 µg/mL (≈ 8.1 µM); with L1210 (setting [1]), 2.95 µg/mL (≈ 6.46 µM).

On to `C[C@H]1C(=O)CC[C@@H]2[C@]1(C)CC[C@H]1[C@@]2(C)CC[C@@]2(C)[C@@H]3C[C@](C)(CO)CC[C@]3(CO)CC[C@]12C`, for which, in the experiment on A549, the EC50 worked out at 0.64 µg/mL (≈ 1.4 µM).

As to `C[C@H]1[C@H](C)CC[C@]2(C(=O)O)CC[C@]3(C)C(=CC[C@@H]4[C@@]5(C)CC[C@H](O)C(C)(C)[C@@H]5CC[C@]43C)[C@H]12`, the outcome with A549, with KB and with L1210 was Active.
